Consider eleven compounds from paper PMC8713164, “Development of a 1,2,4-Triazole-Based Lead Tankyrase Inhibitor: Part II” (Journal of Medicinal Chemistry, 2021).

One experiment concerns the target T1, TNKS2 (Homo sapiens, UniProt Q9H2K2).
T1 construct: TNKS2 (residues 873–1162); made in house
T1 sequence (Q9H2K2 873-1162): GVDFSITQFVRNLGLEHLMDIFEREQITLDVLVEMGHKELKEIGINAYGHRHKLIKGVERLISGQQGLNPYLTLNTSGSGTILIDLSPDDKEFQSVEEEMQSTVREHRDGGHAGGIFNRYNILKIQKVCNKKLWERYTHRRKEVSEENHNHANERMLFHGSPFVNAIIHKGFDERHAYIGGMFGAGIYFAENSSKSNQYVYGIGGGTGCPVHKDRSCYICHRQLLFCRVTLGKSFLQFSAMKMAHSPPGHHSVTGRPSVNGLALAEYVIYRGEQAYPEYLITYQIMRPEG
Nature of the experiment: TNKS2 biochemical assay (unreacted NAD+ fluorescence). To be noted: TNKS2 5 nM, 500 nM NAD+, 20 h; quadruplicates; 95% confidence intervals in parentheses; 24: averages of multiple independent measurements; read-out: IC50 TNKS2. As for the experimental part:
New compounds were prepared in half-log dilution series, and the reactions were carried out in quadruplicates with protein and compound controls to exclude the effect of compound autofluorescence. All reactions were performed at ambient temperature. TNKS1 (20 nM) or TNKS2 (5 nM) was incubated for 20 h in assay buffer (50 mM Bis-Tris propane (BTP), pH 7.0, 0.5 mM Tris(2-carboxyethyl)phosphine (TCEP), 0.01% Triton X-100) with compound and 10 μM or 500 nM NAD^+, respectively.

Another experiment relates to WNT/β-catenin signaling. Nature of the experiment: cellular (HEK293) WNT/β-catenin signaling luciferase reporter assay. The class given is cell-based, human. To be noted: triplicates, 24: averages of multiple independent measurements. (In general: In a reporter assay the amount or activity of a reporter protein is the signal.)
[1] abbreviates: Homo sapiens, HEK293, read-out: IC50 HEK293, HEK293 WNT/β-catenin signaling reporter assay.

Several values for one entry are separate records, joined by “and”; a condition that tells them apart may be missing. Equal entries are not always repeated. Where two headings read alike, the source gives them in different places.

Turning to `O=C(N[C@H]1C[C@H](c2nnc(-c3ccc(OC4CC4)cn3)n2-c2ccccc2F)C1)c1ccccn1` [Compound 7, N-(trans-3-(5-(5-Cyclopropoxypyridin-2-yl)-4-(2-fluorophenyl)-4H-1,2,4-triazol-3-yl)cyclobutyl)picolinamide], the IC50 at TNKS2 amounted to 8.6 nM; in the experiment on WNT/β-catenin signaling (setting [1]) it was 49 nM.

For `CC(C)Oc1ccc(-c2nnc([C@H]3C[C@H](NC(=O)c4ccccn4)C3)n2-c2ccccc2F)nc1` [Compound 8, N-(trans-3-(4-(2-Fluorophenyl)-5-(5-isopropoxypyridin-2-yl)-4H-1,2,4-triazol-3-yl)cyclobutyl)picolinamide], the IC50 on TNKS2 was 12 nM; in the experiment with WNT/β-catenin signaling (setting [1]), 110 nM.

For `O=C(N[C@H]1C[C@H](c2nnc(-c3ccccc3)n2-c2ccccc2F)C1)c1ccccn1` [Compound 9, N-(trans-3-(4-(2-Fluorophenyl)-5-phenyl-4H-1,2,4-triazol-3-yl)cyclobutyl)picolinamide], the IC50 on TNKS2 was 220 nM and 216 nM; with WNT/β-catenin signaling (setting [1]) it was 789 nM.

As to `O=C(N[C@H]1C[C@H](c2nnc(-c3cnccn3)n2-c2ccccc2F)C1)c1ccccn1` [Compound 10, N-(trans-3-(4-(-2-Fluorophenyl)-5-(pyrazin-2-yl)-4H-1,2,4-triazol-3-yl)cyclobutyl)picolinamide], the IC50 was 93 nM on TNKS2 and 355 nM in the experiment with WNT/β-catenin signaling (setting [1]).

For the compound `CCOc1ccc(-c2nnc([C@H]3C[C@H](NC(=O)c4ccccn4)C3)n2-c2ccccc2)nc1` [Compound 11, N-(trans-3-(5-(5-Ethoxypyridin-2-yl)-4-phenyl-4H-1,2,4-triazol-3-yl)cyclobutyl)picolinamide], the IC50 on TNKS2 was found to be 5.2 nM; with WNT/β-catenin signaling (setting [1]), 65 nM.

On to `CCOc1ccc(-c2nnc([C@H]3C[C@H](NC(=O)c4ccccn4)C3)n2-c2cccc(Cl)c2)nc1` [Compound 12, N-(trans-3-(4-(3-Chlorophenyl)-5-(5-ethoxypyridin-2-yl)-4H-1,2,4-triazol-3-yl)cyclobutyl)picolinamide], for which the IC50 on TNKS2 was 13 nM; in the experiment on WNT/β-catenin signaling (setting [1]), 83 nM.

On to `CCOc1ccc(-c2nnc([C@H]3C[C@H](NC(=O)c4ccccn4)C3)n2-c2ccc(C)s2)nc1` [Compound 13, N-(trans-3-(5-(5-Ethoxypyridin-2-yl)-4-(5-methylthiophen-2-yl)-4H-1,2,4-triazol-3-yl)cyclobutyl)picolinamide], for which the IC50 at TNKS2 came to 4.6 nM; in the experiment with WNT/β-catenin signaling (setting [1]), 37 nM.

For the compound `CCOc1ccc(-c2nnc([C@H]3C[C@H](NC(=O)c4ccccn4)C3)n2-c2ccc(Cl)s2)nc1` [Compound 14, N-(trans-3-(4-(5-Chlorothiophen-2-yl)-5-(5-ethoxypyridin-2-yl)-4H-1,2,4-triazol-3-yl)cyclobutyl)picolinamide], the IC50 on TNKS2 came to 12 nM; with WNT/β-catenin signaling (setting [1]), 27 nM.

As to `CCOc1ccc(-c2nnc([C@H]3C[C@H](NC(=O)c4ccnc5cccnc45)C3)n2-c2ccccn2)nc1` [Compound 16a, N-(trans-3-(5-(5-Ethoxypyridin-2-yl)-4-(pyridin-2-yl)-4H-1,2,4-triazol-3-yl)cyclobutyl)-1,5-naphthyridine-4-carboxamide], the IC50 was determined as 5.8 nM on TNKS2 and 36 nM in the experiment with WNT/β-catenin signaling (setting [1]).

With `CCOc1ccc(-c2nnc([C@H]3C[C@H](NC(=O)c4ccnc5cc(F)cnc45)C3)n2-c2ccccn2)nc1` [Compound 16b, N-(trans-3-(5-(5-Ethoxypyridin-2-yl)-4-(pyridin-2-yl)-4H-1,2,4-triazol-3-yl)cyclobutyl)-7-fluoro-1,5-naphthyridine-4-carboxamide], the IC50 is 8.5 nM at TNKS2; 8.7 nM in the experiment with WNT/β-catenin signaling (setting [1]); 9 nM in the experiment with WNT/β-catenin signaling (read-out: IC50 HEK293, HEK293 WNT/β-catenin signaling reporter assay).

With `CCOc1ccc(-c2nnc([C@H]3C[C@H](NC(=O)c4ccnc5cccnc45)C3)n2-c2cccnc2)nc1` [Compound 17a, N-(trans-3-(5-(5-Ethoxypyridin-2-yl)-4-(pyridin-3-yl)-4H-1,2,4-triazol-3-yl)cyclobutyl)-1,5-naphthyridine-4-carboxamide], the IC50 at TNKS2 is 4.5 nM; with WNT/β-catenin signaling (setting [1]), 16 nM.
